Results as given in patent publication US20100311585A1, “HERBICIDAL COMPOSITION AND METHOD OF USE THEREOF” (SYNGENTA CROP PROTECTION, INC., priority 2007, published 2010).

Key:
[1] = test system: goosegrass (Eleusine indica); assay: Glasshouse trial, control of goosegrass, post-emergence application; format: in vivo; parameters: key: % weed control; expected = A+B−(A×B/100) (Colby); settings: for Actual (weed control): X-77 0.1% v/v, * indicates synergy
Protocol: (§1) In the following tests, herbicides were applied at reduced field rates because herbicide effects are magnified in a glasshouse environment. The rates tested were selected to give between about 50 and 70% control with herbicides applied alone, so that any synergistic effect could be readily detected when testing mixtures. A glasshouse trial was carried out. Goosegrass seeds were sown into standard glasshouse potting mix (1:1 v/v Promix: Vero sand soil) contained in 10 cm square plastic pots. Treatments were replicated three times. Mesotrione (in the form Callisto® 480SE) was applied post-emergence to goosegrass (Eleusine indica) at either 100 g ai/ha or 200 g ai/ha with or without ethofumesate (in the form Prograss®). When used, ethofumesate was applied at a rate of 210 g ai/ha, 420 g ai/ha or 840 g ai/ha. The adjuvant system was X-77 at 0.1% v/v in deionised water. 200 litres of herbicide/adjuvant system was used per hectare. General weed control was evaluated at 7 and 14 days after treatment (DAT). It is noted that all herbicides were applied at reduced field rates because herbicide effects are magnified in a glasshouse environment. Rates were chosen to give a 50 to 70% level of control with herbicides applied alone as this allows for detection of any synergistic effect when tank mixtures are used. The results were evaluated using the Colby formula. The expected result for (A+B) is (A+B)−(A×B/100) where A and B are the ‘observed’ results for A and B on their own.

[2] = test system: Medicago lupulina (black medic); assay: Glasshouse trial, control of black medic, post-emergence application; format: in vivo; settings: ethofumesate 210 g ai/ha plus mesotrione at 100 g ai/ha
Protocol: as §1, with “A” for “In the following tests, herbicides were applied at reduced field rates because herbicide effects are magnified in a glasshouse environment. The rates tested were selected to give between about 50 and 70% control with herbicides applied alone, so that any synergistic effect could be readily detected when testing mixtures. A”, “own. […] A glasshouse trial was carried out as described in Example 1, except that Medicago lupulina (black medic) was used in place of goosegrass, and only one rate combination was tested.” for “own.”

[3] = ethofumesate 210 g ai/ha plus mesotrione at 200 g ai/ha
[4] = ethofumesate 420 g ai/ha plus mesotrione at 100 g ai/ha
[5] = ethofumesate 420 g ai/ha plus mesotrione at 200 g ai/ha
[6] = ethofumesate 840 g ai/ha plus mesotrione at 100 g ai/ha
[7] = ethofumesate 840 g ai/ha plus mesotrione at 200 g ai/ha

CCOC1Oc2ccc(OS(C)(=O)=O)cc2C1(C)C (racemic) [Ethofumesate, (±)-2-ethoxy-2,3-dihydro-3,3-dimethylbenzofuran-5-yl methanesulfonate]
Expected (weed control, Colby formula) [1, 3]: 30
Actual (weed control) [1, 3]: 45*
Expected (weed control, Colby formula) [1, 4]: 25
Actual (weed control) [1, 4]: 37*
Expected (weed control, Colby formula) [1, 5]: 30
Actual (weed control) [1, 5]: 52*
Expected (weed control, Colby formula) [1, 6]: 25
Actual (weed control) [1, 6]: 55*
Expected (weed control, Colby formula) [1, 7]: 30
Actual (weed control) [1, 7]: 72*
Expected (weed control, Colby formula) [2]: 85
Actual (weed control) ([2]; * indicates synergy): 94*
